Laboratory results as given in ChEMBL document CHEMBL1201862, “PubChem BioAssay data set” (2004).
Active and inactive are the calls of the source.

What was measured:
[1] = inhibition of ADAM10 peptide cleavage – biochemical, FRET peptide substrate, recombinant human ADAM10, selectivity assay for ADAM17 exosite inhibitor project, dose response (AID 743259);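 note: ADAM10 enzyme cleaving a FRET peptide substrate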
[2] = molecular target: Disintegrin and metalloproteinase domain-containing protein 17 (Homo sapiens, UniProt P78536); experiment: exosite inhibitors of ADAM17, dose response, biochemical (AID 743260)
Chain of Disintegrin and metalloproteinase domain-containing protein 17 (P78536 whole entry, the tested form may be a part): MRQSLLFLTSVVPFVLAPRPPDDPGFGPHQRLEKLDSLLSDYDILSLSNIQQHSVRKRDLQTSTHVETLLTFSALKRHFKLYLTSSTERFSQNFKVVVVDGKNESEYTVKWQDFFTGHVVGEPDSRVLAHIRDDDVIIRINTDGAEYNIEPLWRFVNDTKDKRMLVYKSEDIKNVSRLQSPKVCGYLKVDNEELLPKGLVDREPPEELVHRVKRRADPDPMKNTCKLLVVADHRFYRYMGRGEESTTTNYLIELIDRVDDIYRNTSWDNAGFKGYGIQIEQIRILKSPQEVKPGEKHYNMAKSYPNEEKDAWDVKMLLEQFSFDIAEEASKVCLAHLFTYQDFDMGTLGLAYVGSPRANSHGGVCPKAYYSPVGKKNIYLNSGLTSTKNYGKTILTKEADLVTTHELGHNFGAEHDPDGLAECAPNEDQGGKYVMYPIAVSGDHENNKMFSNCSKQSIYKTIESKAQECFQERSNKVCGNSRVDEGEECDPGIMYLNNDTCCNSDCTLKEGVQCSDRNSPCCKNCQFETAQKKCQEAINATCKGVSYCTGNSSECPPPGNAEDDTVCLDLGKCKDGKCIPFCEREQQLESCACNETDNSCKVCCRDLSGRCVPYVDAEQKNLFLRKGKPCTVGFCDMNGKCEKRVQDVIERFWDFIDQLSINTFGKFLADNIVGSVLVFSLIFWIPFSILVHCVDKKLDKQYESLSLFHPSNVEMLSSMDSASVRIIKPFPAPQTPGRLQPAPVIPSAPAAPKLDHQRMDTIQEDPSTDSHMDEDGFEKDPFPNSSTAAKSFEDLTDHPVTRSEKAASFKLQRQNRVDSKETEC

[3] = HIV-1 Vif–A3G interaction blockers – biochemical, TR-FRET, GST-Vif 1-94, biotin-A3G peptide, dose response retest, primary screen (AID 1117319); assay type: functional;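 note: TR-FRET signal of purified GST-Vif binding a biotinylated A3G peptide; inhibitors lower the FRET signal by blocking Vif and A3G binding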
[4] = molecular target: T1, Caspase-6 (Homo sapiens, UniProt P55212); experiment: inhibition of CASP6 peptide cleavage – biochemical, VEID-R110 fluorescence, cherry-pick, dose response (AID 720632)
T1 sequence (P55212 whole entry): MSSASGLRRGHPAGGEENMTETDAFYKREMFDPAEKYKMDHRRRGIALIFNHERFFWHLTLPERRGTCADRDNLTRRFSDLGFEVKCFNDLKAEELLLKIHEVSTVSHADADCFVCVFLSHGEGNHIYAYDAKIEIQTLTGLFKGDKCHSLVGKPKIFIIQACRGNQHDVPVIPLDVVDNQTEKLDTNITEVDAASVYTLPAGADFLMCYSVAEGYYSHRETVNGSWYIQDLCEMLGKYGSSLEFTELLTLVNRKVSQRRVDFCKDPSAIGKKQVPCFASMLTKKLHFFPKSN

[5] = molecular target: T2, Carboxy-terminal domain RNA polymerase II polypeptide A small phosphatase 1 (Homo sapiens, UniProt Q9GZU7); experiment: CTDSP1 inhibitors, concentration-response, biochemical, absorbance readout, ultra-high-throughput screen actives (AID 540297); assay type: functional
T2 sequence (Q9GZU7 whole entry): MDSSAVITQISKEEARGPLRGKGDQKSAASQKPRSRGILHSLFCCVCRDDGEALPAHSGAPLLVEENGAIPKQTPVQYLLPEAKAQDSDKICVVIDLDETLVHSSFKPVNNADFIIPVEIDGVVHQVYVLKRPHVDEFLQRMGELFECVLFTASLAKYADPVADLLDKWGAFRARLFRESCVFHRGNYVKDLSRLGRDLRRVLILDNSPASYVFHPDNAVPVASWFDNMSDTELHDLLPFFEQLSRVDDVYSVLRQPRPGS

[6] = molecular target: FAD-linked sulfhydryl oxidase ALR (Homo sapiens, UniProt P55789); experiment: ALR-catalysed DTT oxidation blockers – biochemical, H2O2 detection, luminescence, cherry-pick, dose response (AID 493248)
Chain of FAD-linked sulfhydryl oxidase ALR (P55789 whole entry): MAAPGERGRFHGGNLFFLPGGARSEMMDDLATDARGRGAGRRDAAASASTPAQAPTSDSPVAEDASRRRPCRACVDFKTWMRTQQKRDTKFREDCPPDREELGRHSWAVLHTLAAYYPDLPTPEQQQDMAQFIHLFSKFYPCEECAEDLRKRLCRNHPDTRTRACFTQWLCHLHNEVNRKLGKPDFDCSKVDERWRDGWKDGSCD

[7] = Luminescence Cell-Based Dose Response HTS to Identify Inhibitors of 5'UTR Stem-Loop Driven Prion Protein mRNA Translation in H4 Neuroglioblastoma Cells. [Related pubchem assays: 1827 (Project Summary), 1813 (Primary HTS)]; assay type: functional
[8] = reduced cellular PGC1a acetyl-lysine signal – cell-based, cherry-picked samples, dose response (AID 720514); assay type: functional;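 note: potency may reflect raised or lowered acetylation signal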
[9] = loss of viability in HepG2 cells – cell-based, CellTiter-Glo, cherry-picked, cytotoxicity control for Shn3 inhibitor project, dose response (AID 624134); assay type: functional
[10] = luciferase reporter signal suppression in cells – H4 neuroglioma cells, luminescence, dose response (AID 1990); assay type: functional, cell-based
[11] = alpha-synuclein stem-loop luciferase translation blockers – H4 neuroglioma cells, luminescence, confirmation (AID 1988); assay type: functional, cell-based
[12] = reduction of Shn3 3'UTR-driven luciferase in osteoblasts – cell-based, Clone20 osteoblasts, firefly luciferase, cherry-picked, dose response (AID 624132); assay type: functional;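 note: firefly luciferase luminescence from reporter carrying the Shn3 3'UTR in osteoblasts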
[13] = molecular target: Nonstructural protein 1 (Influenza A virus, UniProt Q194T2); assay type: functional, Influenza A virus (A/California/07/2009(H1N1))
Chain of Nonstructural protein 1 (Q194T2 whole entry): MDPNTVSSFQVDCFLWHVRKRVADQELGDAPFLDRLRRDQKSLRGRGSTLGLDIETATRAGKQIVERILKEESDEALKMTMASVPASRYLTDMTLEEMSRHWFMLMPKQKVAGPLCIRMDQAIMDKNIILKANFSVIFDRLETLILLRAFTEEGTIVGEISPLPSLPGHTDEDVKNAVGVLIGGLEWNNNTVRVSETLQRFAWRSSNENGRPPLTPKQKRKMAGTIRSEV

[14] = molecular target: Genome polyprotein (dengue virus type 2, UniProt P29990); experiment: flavivirus cap methylation enzyme inhibition – biochemical, confirmation dose response, primary screen (AID 588689); assay type: functional
Chain of Genome polyprotein (P29990 2492-3391 limits assumed): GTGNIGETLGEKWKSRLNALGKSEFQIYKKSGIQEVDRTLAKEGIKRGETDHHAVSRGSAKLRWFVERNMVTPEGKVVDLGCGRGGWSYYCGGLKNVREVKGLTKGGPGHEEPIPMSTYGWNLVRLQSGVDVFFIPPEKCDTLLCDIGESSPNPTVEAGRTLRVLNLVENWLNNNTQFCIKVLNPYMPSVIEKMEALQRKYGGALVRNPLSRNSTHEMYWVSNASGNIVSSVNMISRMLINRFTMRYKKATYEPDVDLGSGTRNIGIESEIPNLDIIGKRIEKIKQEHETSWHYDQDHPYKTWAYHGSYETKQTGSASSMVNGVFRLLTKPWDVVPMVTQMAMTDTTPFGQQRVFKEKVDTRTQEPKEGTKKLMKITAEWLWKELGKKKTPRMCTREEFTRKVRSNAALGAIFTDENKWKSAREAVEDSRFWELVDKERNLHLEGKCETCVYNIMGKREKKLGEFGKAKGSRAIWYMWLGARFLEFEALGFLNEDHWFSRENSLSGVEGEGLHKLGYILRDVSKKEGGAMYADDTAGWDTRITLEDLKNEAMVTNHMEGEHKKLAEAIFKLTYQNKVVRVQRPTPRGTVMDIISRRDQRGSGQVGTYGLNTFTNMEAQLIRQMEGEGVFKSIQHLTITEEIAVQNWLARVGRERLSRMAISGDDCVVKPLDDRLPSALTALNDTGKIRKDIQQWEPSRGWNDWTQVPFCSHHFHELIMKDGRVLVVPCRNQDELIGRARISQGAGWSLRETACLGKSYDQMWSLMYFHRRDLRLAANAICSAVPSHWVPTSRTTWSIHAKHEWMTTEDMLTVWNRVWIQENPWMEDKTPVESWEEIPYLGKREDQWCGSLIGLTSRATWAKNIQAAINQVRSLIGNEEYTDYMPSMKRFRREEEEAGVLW

[15] = molecular target: T3, RNA-binding protein pos-1 (Caenorhabditis elegans, UniProt G5EF15); experiment: disruptors of C. elegans POS-1 RNA interaction – biochemical, fluorescence polarization, dose response (AID 1964);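 note: purified POS-1 fused to maltose binding protein made in E. coli; potency of compounds blocking POS-1 binding to fluorescent RNA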
T3 sequence (G5EF15 whole entry): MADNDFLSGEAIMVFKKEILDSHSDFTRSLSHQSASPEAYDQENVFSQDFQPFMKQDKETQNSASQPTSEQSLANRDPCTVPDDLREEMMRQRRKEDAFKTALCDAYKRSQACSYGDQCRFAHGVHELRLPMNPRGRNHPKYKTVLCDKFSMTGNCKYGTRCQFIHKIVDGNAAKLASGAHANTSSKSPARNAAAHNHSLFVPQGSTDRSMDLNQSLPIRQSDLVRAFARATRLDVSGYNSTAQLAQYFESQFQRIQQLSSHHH

[16] = molecular target: NAD-dependent protein deacylase sirtuin-5, mitochondrial (Homo sapiens, UniProt Q9NXA8); experiment: sirtuin-5 deacylation blockers, concentration series – biochemical, fluorescence imaging, cherry-pick, set 5, dose response (AID 720591);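 note: desuccinylation of succinyl peptide AMC substrate read as fluorescence after trypsin release; potency of inhibitors that lower fluorescence and may act on trypsin instead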
Chain of NAD-dependent protein deacylase sirtuin-5, mitochondrial (Q9NXA8 whole entry, the tested form may be a part): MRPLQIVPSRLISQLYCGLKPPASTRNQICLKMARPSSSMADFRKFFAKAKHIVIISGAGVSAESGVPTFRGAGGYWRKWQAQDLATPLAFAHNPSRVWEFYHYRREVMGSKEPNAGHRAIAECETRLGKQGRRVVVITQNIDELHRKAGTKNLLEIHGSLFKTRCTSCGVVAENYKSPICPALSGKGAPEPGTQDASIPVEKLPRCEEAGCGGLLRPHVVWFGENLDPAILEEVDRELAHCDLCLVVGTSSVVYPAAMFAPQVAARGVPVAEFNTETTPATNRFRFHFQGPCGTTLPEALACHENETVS

[17] = molecular target: T4, Oxysterols receptor LXR-beta (Homo sapiens, UniProt P55055); assay type: functional, cell-based;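 note: agonist activity at LXR measured by a cell-based luminescence readout across a dose range, run as a counterscreen for daf-12 agonists; HEK293 cells with Gal4-LXR fusion and GAL4-driven luciferase reporter; potency for activation of Gal4-LXR reporter so compounds are agonists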
T4 sequence (P55055 whole entry): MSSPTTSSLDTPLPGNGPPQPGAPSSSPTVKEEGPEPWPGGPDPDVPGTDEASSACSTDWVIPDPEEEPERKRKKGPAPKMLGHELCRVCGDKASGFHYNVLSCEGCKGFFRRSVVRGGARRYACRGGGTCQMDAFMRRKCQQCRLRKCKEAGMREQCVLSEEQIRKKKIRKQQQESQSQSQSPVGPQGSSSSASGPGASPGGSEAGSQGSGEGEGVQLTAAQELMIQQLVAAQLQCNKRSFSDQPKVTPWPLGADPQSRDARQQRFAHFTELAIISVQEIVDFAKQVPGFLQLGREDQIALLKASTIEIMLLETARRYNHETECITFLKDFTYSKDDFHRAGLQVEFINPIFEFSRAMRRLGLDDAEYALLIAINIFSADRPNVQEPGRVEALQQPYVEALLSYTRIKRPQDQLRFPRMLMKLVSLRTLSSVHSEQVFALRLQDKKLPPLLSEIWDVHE

[18] = Luminescence Cell-Based Dose Response HTS to Identify Activators of Luciferase Translation or Activity in H4 […] Cells. [Related pubchem assays: 1829 (Project Summary), 1814 (Primary HTS)]; assay type: functional
[19] = Luminescence Cell-Based Dose Response to Identify Activators of 5'UTR Stem-Loop Driven Prion Protein mRNA Translation in H4-C Neuroglioblastoma Cells. [Related pubchem assays: 1829 (Project Summary), 1814 (Primary HTS)]; assay type: functional
[20] = Luminescence Cell-Based Dose Response to Identify Activators of Luciferase Translation or Activity in H4-C Neuroglioblastoma Cells. [Related pubchem assays: 1829 (Project Summary), 1814 (Primary HTS)]; assay type: functional
[21] = Luminescence Cell-Based Dose Confirmation to Identify Activators of 5'UTR Stem-Loop Driven Alpha-Synuclein mRNA Translation in H4 Neuroglioblastoma Cells. [Related pubchem assays: 1829 (Project Summary), 1814 (Primary HTS)]; assay type: functional
[22] = molecular target: T5, Mannose-6-phosphate isomerase (Homo sapiens, UniProt P34949); experiment: MPI inhibition at elevated mannose 6-phosphate – biochemical, fluorescence intensity, high mannose 6-phosphate, primary screen (AID 1220)
T5 sequence (P34949 whole entry): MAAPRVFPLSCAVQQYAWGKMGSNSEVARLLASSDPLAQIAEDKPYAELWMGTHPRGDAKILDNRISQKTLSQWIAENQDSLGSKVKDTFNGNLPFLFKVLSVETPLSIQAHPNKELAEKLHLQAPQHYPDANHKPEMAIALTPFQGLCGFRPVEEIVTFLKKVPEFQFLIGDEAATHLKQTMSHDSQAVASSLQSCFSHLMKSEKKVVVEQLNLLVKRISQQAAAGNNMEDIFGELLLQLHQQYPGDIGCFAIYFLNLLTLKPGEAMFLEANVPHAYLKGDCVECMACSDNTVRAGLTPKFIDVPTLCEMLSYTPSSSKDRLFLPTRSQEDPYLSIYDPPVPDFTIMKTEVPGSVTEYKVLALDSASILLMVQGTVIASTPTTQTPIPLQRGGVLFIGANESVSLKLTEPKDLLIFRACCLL

[23] = fluconazole-exposed Candida albicans growth modulators – fluorescence, retest, confirmation (AID 2467); assay type: functional, cell-based
[24] = NIH-3T3 fibroblast cytotoxicity, dose response, cytotoxicity control, cell-based, fluorescence, Alamar Blue, secondary assay (AID 2327); assay type: functional;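 note: NIH-3T3 mouse fibroblasts cultured with fluconazole at 8 µg/mL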
[25] = molecular target: Protein-tyrosine kinase 2-beta (Homo sapiens, UniProt Q14289);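 note: potency of inhibitors of PYK2 kinase phosphorylation of poly-GT substrate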
Chain of Protein-tyrosine kinase 2-beta (Q14289 whole entry): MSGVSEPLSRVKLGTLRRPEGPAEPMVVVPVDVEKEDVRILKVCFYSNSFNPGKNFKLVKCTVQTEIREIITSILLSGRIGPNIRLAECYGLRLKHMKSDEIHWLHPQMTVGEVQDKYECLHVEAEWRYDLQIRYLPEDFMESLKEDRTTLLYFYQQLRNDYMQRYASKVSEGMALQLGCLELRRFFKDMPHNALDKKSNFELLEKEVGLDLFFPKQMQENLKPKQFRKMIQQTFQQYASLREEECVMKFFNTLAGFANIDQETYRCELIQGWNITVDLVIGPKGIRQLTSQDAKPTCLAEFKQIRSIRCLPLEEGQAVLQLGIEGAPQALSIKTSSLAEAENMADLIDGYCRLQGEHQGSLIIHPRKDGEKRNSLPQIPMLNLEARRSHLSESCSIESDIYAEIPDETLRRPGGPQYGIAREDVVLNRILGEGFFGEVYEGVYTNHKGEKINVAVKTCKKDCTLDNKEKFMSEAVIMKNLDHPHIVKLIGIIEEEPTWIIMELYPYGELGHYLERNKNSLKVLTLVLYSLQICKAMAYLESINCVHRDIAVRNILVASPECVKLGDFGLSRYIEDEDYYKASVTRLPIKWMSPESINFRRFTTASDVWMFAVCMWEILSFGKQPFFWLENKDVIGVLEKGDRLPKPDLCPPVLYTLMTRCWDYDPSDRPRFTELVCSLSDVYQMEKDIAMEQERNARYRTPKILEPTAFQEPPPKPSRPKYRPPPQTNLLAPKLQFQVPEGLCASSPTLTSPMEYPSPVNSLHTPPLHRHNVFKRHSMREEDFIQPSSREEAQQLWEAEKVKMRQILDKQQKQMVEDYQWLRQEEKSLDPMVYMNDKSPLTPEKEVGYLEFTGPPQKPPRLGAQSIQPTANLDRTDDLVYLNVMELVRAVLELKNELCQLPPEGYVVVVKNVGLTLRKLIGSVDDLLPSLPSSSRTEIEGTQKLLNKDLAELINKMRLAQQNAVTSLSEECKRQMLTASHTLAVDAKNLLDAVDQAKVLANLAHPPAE

With `Cc1ccc(NC(=O)C(OC(=O)c2cc(C)oc2C)c2ccccc2)cc1` (stereo not given) the IC50 [1] was 24.5 µM (inactive) and the IC50 [2] was > 69.5 µM (inactive).
For `COc1cc(NC(=O)C/C(C)=N/NC(=O)Cc2ccccc2)c(OC)cc1Cl`, the IC50 [1] was > 69.5 µM (inactive) and the IC50 [2] was > 69.5 µM (inactive).
In the case of `c1ccc(Nc2ccccn2)cc1`, the IC50 [3] is reported as > 100 µM (active).
For `CSc1ccc(NC(=O)Nc2ccc(C(=O)NCC(=O)O)cc2)cc1`, the AC50 [4] was 18.4 µM (active), the IC50 [5] was 3.17 µM (active) and the AC50 [6] was 2.47 µM (active).
With `CC(C)CC(NC(=O)c1ccc(Cl)cc1)C(=O)OCC(=O)c1ccc2c(c1)NC(=O)CO2` (stereo not given) the EC50 [7] was 2.69 µM (active), the AC50 [8] was 6.45 µM (active) and the AC50 [9] was 15.5 µM (active). For the same compound, the EC50 [10] was 6.2 µM (active), the EC50 [11] was 4.38 µM (active) and the AC50 [12] was 4.01 µM (active).
With `Oc1ccc(/C=N/Nc2ccc(Cl)nn2)c(O)c1O` the AC50 [4] was 1.1 µM (active), the IC50 [13] was 2.08 µM (active) and the IC50 [14] was 16.4 µM (active). The EC50 [15] was 50 µM (inconclusive).
For `COc1ccc(NS(=O)(=O)c2cccc(C(=O)N3CCCC(C)C3)c2)cc1` (stereo not given), the AC50 [16] was 28.4 µM (active).
For `O=C(O)c1ccc(Nc2nc(-c3ccccc3)nc3ccccc23)cc1`, the AC50 [16] was 17.9 µM (active).
With `Cc1cccc(C(=N)NOC(=O)c2cccs2)c1` the EC50 [17] was > 67.5 µM (inactive).
For `CCOC(=O)c1cnc(SCc2ccccc2)nc1N`, the EC50 [17] was > 67.5 µM (inactive), the EC50 [18] was < 0.1 µM (active) and the EC50 [19] was 0.342 µM (active). The EC50 [20] was 0.278 µM (active) and the EC50 [21] was 0.23 µM (active).
With `Cc1cc(C)[n+]2ncn(C)c2n1` the IC50 [22] was > 50 µM (not active).
With `COc1ccc(CNc2cc(NCCCO)c([N+](=O)[O-])c3nonc23)cc1` the IC50 [22] was > 50 µM (not active).
With `COc1cc(/C=C(\C#N)c2nc3ccccc3[nH]2)c([N+](=O)[O-])cc1OCc1ccccc1` the IC50 [3] was > 100 µM (active).
For `CC(=O)c1c(C)[nH]c(C(=O)Nc2ccc(C)c(C)c2)c1C`, the EC50 [23] was > 38 µM (not active), the IC50 [3] was > 100 µM (active) and the EC50 [24] was 72.3 µM (active).
With `C[C@H]1CN([C@@H](C)CO)S(=O)(=O)c2ccc(-c3ccccc3)cc2O[C@@H]1CN(C)Cc1cccc(F)c1` the AC50 [8] was 7.93 µM (active).
With `CN(c1ccc(OCC(=O)Nc2cc(Cl)ccc2C(=O)O)cc1)S(=O)(=O)c1ccc(F)cc1` the AC50 [4] was 27.2 µM (active).
For `O=c1c2ccccc2cnn1-c1ccc2ccccc2c1`, the EC50 [17] was > 67.5 µM (inactive).
With `COC(=O)C1=C(c2ccccc2OCc2ccccc2)C[C@@H]2CC[C@H]1N2C(=O)NCc1ccc(Cl)cc1` the IC50 [1] was > 7.72 µM (active) and the IC50 [2] was > 69.5 µM (inactive).
In the case of `COc1ccc(-n2c(SCC#N)nnc2-c2cccnc2)cc1`, the AC50 [8] is reported as 16.7 µM (active).
With `COc1ccc(-c2ccc3c(N)c(C(=O)c4ccc(OC)c(OC)c4)sc3n2)cc1` the IC50 [25] was 4.28 µM (active).
In the case of `CC(C(=O)Nc1ccc(S(=O)(=O)N2CCOCC2)cc1)N1CCN(c2ccccn2)CC1` (stereo not given), the AC50 [16] is reported as > 30 µM (inactive).
